Measured values reported in paper PMC9176744 (Science Advances, 2022).
Values belong to the molecule of their own block, whether it stands above or below them.

Key:
DHS1^WT [1] = target: T1, DHS1^WT (Arabidopsis thaliana, UniProt P29976); experiment: DHS enzyme assay; assay type: biochemical; conditions: for inhibition of DHS1 activity: screening of AAA-derived metabolites as potential inhibitors (Fig. 2D); for IC50: recombinant DHS1^WT, varied effector concentrations
DHS2^WT [2] = target: T2, DHS2^WT (Arabidopsis thaliana, UniProt Q00218); experiment: DHS enzyme assay; assay type: biochemical; conditions: for inhibition of DHS2 activity: screening of AAAs and AAA-derived metabolites as potential inhibitors (Fig. 2D); for IC50: recombinant DHS2^WT, varied effector concentrations; for inhibition at 1000 µM: read-out: inhibition of DHS2
T2 sequence (Q00218 34-507): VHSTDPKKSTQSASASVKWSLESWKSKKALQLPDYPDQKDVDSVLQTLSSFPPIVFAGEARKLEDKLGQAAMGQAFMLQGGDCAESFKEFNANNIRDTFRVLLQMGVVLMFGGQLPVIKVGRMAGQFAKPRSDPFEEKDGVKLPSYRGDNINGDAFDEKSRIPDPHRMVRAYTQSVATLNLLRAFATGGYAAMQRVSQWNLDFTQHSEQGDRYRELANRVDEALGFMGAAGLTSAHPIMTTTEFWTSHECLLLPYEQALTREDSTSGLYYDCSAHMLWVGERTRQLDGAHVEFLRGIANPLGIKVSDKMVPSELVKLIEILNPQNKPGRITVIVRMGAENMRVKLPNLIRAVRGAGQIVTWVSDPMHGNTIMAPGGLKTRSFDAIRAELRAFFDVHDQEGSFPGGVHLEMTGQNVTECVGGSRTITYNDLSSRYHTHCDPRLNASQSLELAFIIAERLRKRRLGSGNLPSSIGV

DHS3 (DHS^WT isoform) [3] = experiment: DHS enzyme assay; assay type: biochemical, Arabidopsis thaliana; conditions: for inhibition of DHS3 WT activity: all DHS^WT isoforms
[4] = tested on: sota mutants (DHS enzymes); experiment: DHS enzyme assay, sota mutant enzymes compared with corresponding WT enzymes; assay type: biochemical, Arabidopsis thaliana; conditions: nearly all of the sota mutants; maximum increase
DHS2^A11 = experiment: DHS enzyme assay, DHS2 with the sotaA11 mutation; conditions: for change in IC50 versus corresponding WT enzyme: DHS2^A11, the weakest sota allele; for inhibition of DHS2^A11 activity: concentration of up to 1 mM
[5] = tested on: Arabidopsis plants (Col-0, sotaB4, sotaA4); experiment: Plant growth on media containing the effector
DHS2^WT [6] = target: T2, DHS2^WT; conditions: shown previously; cited from earlier work
DHS2^A4 = experiment: DHS enzyme assay, DHS2 with the sotaA4 mutation; conditions: for inhibition of DHS2^A4 activity: concentration of up to 1 mM; for inhibition of DHS2^A4: similar IC50 values to DHS2^WT
DHS2^F1 = experiment: DHS enzyme assay, DHS2 with the sotaF1 mutation; conditions: concentration of up to 1 mM
DHS1^B4 = experiment: DHS enzyme assay, DHS1 with the sotaB4 mutation; assay type: biochemical, Arabidopsis thaliana; conditions: comparable IC50 values to DHS1^WT
DHS1^WT [7] = target: T1, DHS1^WT; conditions: shown previously; cited from earlier work
DHS3 (DHS^WT isoform) [8] = conditions: shown previously; cited from earlier work
[9] = ILA feeding, media with 0, 250, 500 or 1000 μM, 3-week-old plants, fresh weight

T1 sequence (P29976 49-525): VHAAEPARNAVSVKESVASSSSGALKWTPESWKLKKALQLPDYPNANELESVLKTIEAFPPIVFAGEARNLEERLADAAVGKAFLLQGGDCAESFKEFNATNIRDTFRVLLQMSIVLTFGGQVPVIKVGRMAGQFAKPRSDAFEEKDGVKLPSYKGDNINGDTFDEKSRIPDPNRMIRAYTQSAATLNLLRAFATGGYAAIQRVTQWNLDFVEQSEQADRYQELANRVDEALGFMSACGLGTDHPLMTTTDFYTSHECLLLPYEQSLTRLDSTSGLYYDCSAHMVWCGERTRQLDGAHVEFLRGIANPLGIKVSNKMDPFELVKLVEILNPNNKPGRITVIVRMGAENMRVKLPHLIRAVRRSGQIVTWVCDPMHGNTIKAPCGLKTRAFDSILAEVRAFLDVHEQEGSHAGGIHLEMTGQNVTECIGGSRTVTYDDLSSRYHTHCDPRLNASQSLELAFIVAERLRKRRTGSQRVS

inhibition of DHS1 activity (DHS1^WT [1]): neither
Compound: O=C(O)Cc1ccc(O)cc1 [4-hydroxyphenylacetate]

Compound: Nc1ccccc1C(=O)[O-].[Na+] [Anthranilate]
inhibition of DHS1 activity (DHS1^WT [1]): did not affect the activity
inhibition of DHS2 activity (DHS2^WT [2]): slight reduction

IC50 (DHS1^WT [1]): 75 to 250 µM
inhibition of DHS1 activity (DHS1^WT [1]): effectively inhibited
IC50 (DHS2^WT [2]): 75 to 250 µM
inhibition of DHS2 activity (DHS2^WT [2]): effectively inhibited
inhibition of DHS3 WT activity (DHS3 (DHS^WT isoform) [3]): effectively inhibited
IC50 (DHS3 (DHS^WT isoform) [3]; recombinant DHS3 WT, varied effector concentrations): 75 to 250 µM
increase in IC50 versus corresponding WT enzymes [4]: ≤ 12 fold
change in IC50 versus corresponding WT enzyme (DHS2^A11): no significant change
Compound: O=C(O)Cc1cc(O)ccc1O [HGA, homogentisate]

inhibition of DHS3 WT activity (DHS3 (DHS^WT isoform) [3]): effectively inhibited
increase in IC50 versus corresponding WT enzymes [4]: up to 7 fold
change in IC50 versus corresponding WT enzyme (DHS2^A11): no significant change
Compound: O=C(O)C(=O)Cc1ccc(O)cc1 [HPP, 4-Hydroxyphenylpyruvate]

inhibition of DHS1 activity (DHS1^WT [1]): reduced the activity
inhibition of DHS2 activity (DHS2^WT [2]): reduced the activity
Compound: O=C(O)C(O)Cc1c[nH]c2ccccc12 (stereo not shown) [ILA, Indole-3-lactate]
effect on growth of Col-0 WT plants [5, 9]: growth inhibition
growth inhibition in sotaB4 mutant plants versus Col-0 [5, 9]: significantly weakened

IC50 (DHS1^WT [1]): 241 µM
inhibition of DHS1 activity (DHS1^WT [1]): inhibit
IC50 (DHS2^WT [2]): 58 µM
inhibition of DHS2 activity (DHS2^WT [2]): inhibit
Compound: O=C(O)C(=O)Cc1c[nH]c2ccccc12 [IPA, indole-3-pyruvate]
effect on plant growth ([5]; independent of genotypes, even at very low concentration (<10 μM)): impaired plant growth

inhibition of DHS1 activity (DHS1^WT [1]): neither
Compound: O=C(O)C(=O)Cc1ccccc1 [PPY, phenylpyruvate]

inhibition of DHS2^A4 activity (DHS2^A4): not inhibited
inhibition of DHS2^F1 activity (DHS2^F1): not inhibited
inhibition of DHS2^A11 activity (DHS2^A11): not inhibited
Compound: N[C@@H](Cc1c[nH]c2ccccc12)C(=O)O [Trp, tryptophan]
inhibition of DHS2 (DHS2^WT [6]): inhibit

inhibition of DHS2^A4 activity (DHS2^A4): not inhibited
inhibition of DHS2^F1 activity (DHS2^F1): not inhibited
inhibition of DHS2^A11 activity (DHS2^A11): not inhibited
Compound: N[C@@H](Cc1ccc(O)cc1)C(=O)O [Tyr, L-tyrosine]

inhibition at 1000 µM (DHS2^WT [2]): ~30%
Compound: OCCc1ccc(O)cc1 [Tyrosol]

inhibition of DHS2^A4 (DHS2^A4): still inhibited
Compound: N[C@@H](CC1(C(=O)O)C=CC(O)C=C1)C(=O)O (stereo partly shown) [arogenate]
inhibition of DHS2 (DHS2^WT [6]): slightly inhibit

inhibition of DHS1^B4 (DHS1^B4): still strongly inhibited
inhibition of DHS2^A4 (DHS2^A4): still inhibited
Compound: O=C(O)/C=C/c1ccc(O)c(O)c1 [caffeate]
inhibition of DHS1 (DHS1^WT [7]): strongly inhibit
inhibition of DHS2 (DHS2^WT [6]): strongly inhibit
inhibition of DHS3 (DHS3 (DHS^WT isoform) [8]): strongly inhibit

inhibition of DHS1^B4 (DHS1^B4): still strongly inhibited
inhibition of DHS2^A4 (DHS2^A4): still inhibited
Compound: C=C(O[C@@H]1C=C(C(=O)O)C=C[C@H]1O)C(=O)O [chorismate]
inhibition of DHS1 (DHS1^WT [7]): strongly inhibit
inhibition of DHS2 (DHS2^WT [6]): strongly inhibit
inhibition of DHS3 (DHS3 (DHS^WT isoform) [8]): strongly inhibit

inhibition of DHS1 activity (DHS1^WT [1]): did not affect the activity
Compound: c1ccc2[nH]ccc2c1 [indole]

inhibition of DHS2^A4 (DHS2^A4): still inhibited
Compound: O=C(O)C(=O)CC1(C(=O)O)C=CC(O)C=C1 (stereo not shown) [prephenate]
inhibition of DHS2 (DHS2^WT [6]): slightly inhibit

inhibition of DHS2^A4 (DHS2^A4): still inhibited
Compound: O=C(O)C1=C[C@@H](O)[C@@H](O)[C@H](O)C1 [shikimate]
inhibition of DHS2 (DHS2^WT [6]): slightly inhibit

Compound: NCCc1c[nH]c2ccccc12 [tryptamine]
inhibition of DHS1 activity (DHS1^WT [1]): did not affect the activity
inhibition of DHS2 activity (DHS2^WT [2]): slight reduction

Compound: NCCc1ccc(O)cc1 [tyramine]
inhibition at 1000 µM (DHS2^WT [2]): ~30%
